Experiments:
Test in all cases: relative viability (nuclei count vs DMSO), 5 days (fraction); higher = more cells survive
NCI-H1993 = tested on: NCI-H1993
Procedure, shortened: (§1)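 Values are medians from duplicate plates. Each reflects relative viability, defined as the nuclei count of treated wells over that of vehicle wells. Lung cancer cell lines in 1536-well plates were pin-tool dosed one day after seeding with one drug alone or with a fixed anchor-drug dose plus five library-drug doses (not always all listed) in √10 steps, then fixed, stained and imaged at 4× after 5 days.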

NCI-H1395 = tested on: NCI-H1395
Procedure, shortened: as §1

NCI-H23 = tested on: NCI-H23
Procedure, shortened: as §1

NCI-H650 = tested on: NCI-H650
Procedure, shortened: as §1

NCI-H2009 = tested on: NCI-H2009
Procedure, shortened: as §1

HARA = tested on: HARA
Procedure, shortened: as §1

EMC-BAC-2 = tested on: EMC-BAC-2
Procedure, shortened: as §1

NCI-H647 = tested on: NCI-H647
Procedure, shortened: as §1

NCI-H1666 = tested on: NCI-H1666
Procedure, shortened: as §1

NCI-H838 = tested on: NCI-H838
Procedure, shortened: as §1

NCI-H3122 = tested on: NCI-H3122
Procedure, shortened: as §1

BEN = tested on: BEN
Procedure, shortened: as §1

Q: What does the source list for Clc1ccc(Nc2nnc(Cc3ccncc3)c3ccccc23)cc1 [Vatalanib] + Nc1nc2[nH]cc(CCc3ccc(C(=O)N[C@@H](CCC(=O)O)C(=O)O)cc3)c2c(=O)[nH]1 [Pemetrexed] (partner 0.2 µM)?
A: relative viability (NCI-H1993; first compound 0.1265 µM): 0.644; relative viability (NCI-H1993; first compound 0.4 µM): 0.619; relative viability (NCI-H1993; first compound 1.265 µM): 0.501; relative viability (NCI-H1993; first compound 4 µM): 0.619; relative viability (NCI-H1395; first compound 0.04 µM): 0.855; relative viability (NCI-H1395; first compound 0.1265 µM): 0.764; relative viability (NCI-H1395; first compound 0.4 µM): 0.767; relative viability (NCI-H1395; first compound 4 µM): 0.842; relative viability (NCI-H23; first compound 0.04 µM): 0.579; relative viability (NCI-H23; first compound 0.1265 µM): 0.654; relative viability (NCI-H23; first compound 0.4 µM): 0.728; relative viability (NCI-H23; first compound 1.265 µM): 0.59; relative viability (NCI-H23; first compound 4 µM): 0.544; relative viability (NCI-H650; first compound 0.04 µM): 0.931; relative viability (NCI-H650; first compound 0.1265 µM): 0.833; relative viability (NCI-H650; first compound 0.4 µM): 1.03; relative viability (NCI-H650; first compound 1.265 µM): 0.885; relative viability (NCI-H650; first compound 4 µM): 0.996; relative viability (NCI-H2009; first compound 0.04 µM): 0.975; relative viability (NCI-H2009; first compound 0.1265 µM): 0.971; relative viability (NCI-H2009; first compound 0.4 µM): 1.09; relative viability (NCI-H2009; first compound 1.265 µM): 1.01; relative viability (NCI-H2009; first compound 4 µM): 0.974; relative viability (HARA; first compound 0.04 µM): 0.225; relative viability (HARA; first compound 0.1265 µM): 0.265; relative viability (HARA; first compound 0.4 µM): 0.252; relative viability (HARA; first compound 1.265 µM): 0.232; relative viability (HARA; first compound 4 µM): 0.256; relative viability (EMC-BAC-2; first compound 0.04 µM): 0.452; relative viability (EMC-BAC-2; first compound 0.1265 µM): 0.427; relative viability (EMC-BAC-2; first compound 0.4 µM): 0.456; relative viability (EMC-BAC-2; first compound 4 µM): 0.463; relative viability (NCI-H647; first compound 0.04 µM): 0.192; relative viability (NCI-H647; first compound 0.1265 µM): 0.163; relative viability (NCI-H647; first compound 0.4 µM): 0.163; relative viability (NCI-H647; first compound 1.265 µM): 0.187; relative viability (NCI-H647; first compound 4 µM): 0.19; relative viability (NCI-H1666; first compound 0.04 µM): 0.845; relative viability (NCI-H1666; first compound 0.1265 µM): 0.844; relative viability (NCI-H1666; first compound 0.4 µM): 0.843; relative viability (NCI-H1666; first compound 1.265 µM): 0.799; relative viability (NCI-H1666; first compound 4 µM): 0.901; relative viability (NCI-H838; first compound 0.04 µM): 0.243; relative viability (NCI-H838; first compound 0.1265 µM): 0.226; relative viability (NCI-H838; first compound 0.4 µM): 0.261; relative viability (NCI-H838; first compound 1.265 µM): 0.239; relative viability (NCI-H838; first compound 4 µM): 0.239; relative viability (NCI-H3122; first compound 0.04 µM): 0.195; relative viability (NCI-H3122; first compound 0.1265 µM): 0.19; relative viability (NCI-H3122; first compound 0.4 µM): 0.191; relative viability (NCI-H3122; first compound 1.265 µM): 0.199; relative viability (NCI-H3122; first compound 4 µM): 0.189; relative viability (BEN; first compound 0.04 µM): 0.662; relative viability (BEN; first compound 0.1265 µM): 0.659; relative viability (BEN; first compound 0.4 µM): 0.443; relative viability (BEN; first compound 1.265 µM): 0.681; relative viability (BEN; first compound 4 µM): 0.743
